The values below come from PMC9186491, “Novel Small Molecule Tyrosine Kinase 2 Pseudokinase Ligands Block Cytokine-Induced TYK2-Mediated Signaling Pathways” (Frontiers in Immunology, 2022).

One series deals with CYP450 2D6 (Homo sapiens, UniProt P10635). Nature of the series: CYP450 inhibition, 2D6. Format: in vitro ADME.
A short description of another series: LogD. Format: physicochemical.
The nature of the next series: PPB, D. The series is classed as in vitro ADME. The settings on record: dog, plasma.
A further series can be described thus: LM T1/2, R. Format: in vitro ADME. The settings on record: rat, liver microsomes. A general note: Liver microsomes are vesicles of endoplasmic reticulum, rich in cytochrome P450 enzymes.
A further series can be described thus: PPB, Mk. The series is classed as in vitro ADME. Conditions: monkey, plasma.
A short description of another series: PPB, H. Format: in vitro ADME. The settings on record: human, plasma.
Another series in a line: LM T1/2, M. The series is classed as in vitro ADME. The settings on record: mouse, liver microsomes.
The target in a further series is CYP450 2C9 (Homo sapiens, UniProt P11712). In words: CYP450 inhibition, 2C9. Format: in vitro ADME.
CYP450 2C9, sequence (P11712 whole entry): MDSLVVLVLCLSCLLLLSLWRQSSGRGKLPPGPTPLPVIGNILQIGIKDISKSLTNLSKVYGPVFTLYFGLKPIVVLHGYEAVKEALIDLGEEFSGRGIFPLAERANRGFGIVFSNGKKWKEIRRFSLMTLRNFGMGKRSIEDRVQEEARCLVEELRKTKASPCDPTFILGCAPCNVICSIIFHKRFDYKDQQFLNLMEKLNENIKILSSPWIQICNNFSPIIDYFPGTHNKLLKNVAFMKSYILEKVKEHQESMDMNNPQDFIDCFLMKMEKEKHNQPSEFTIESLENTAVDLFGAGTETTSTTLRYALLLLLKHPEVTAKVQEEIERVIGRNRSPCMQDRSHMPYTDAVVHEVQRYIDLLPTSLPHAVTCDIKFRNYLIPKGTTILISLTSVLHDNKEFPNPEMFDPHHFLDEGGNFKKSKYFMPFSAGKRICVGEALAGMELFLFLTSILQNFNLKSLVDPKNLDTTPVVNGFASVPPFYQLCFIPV
The nature of a further series: PPB, M. Format: in vitro ADME. Conditions: mouse, plasma.
In the next series the target is T1, JAK3 (Homo sapiens, UniProt P52333).
T1 sequence (P52333 1-1124): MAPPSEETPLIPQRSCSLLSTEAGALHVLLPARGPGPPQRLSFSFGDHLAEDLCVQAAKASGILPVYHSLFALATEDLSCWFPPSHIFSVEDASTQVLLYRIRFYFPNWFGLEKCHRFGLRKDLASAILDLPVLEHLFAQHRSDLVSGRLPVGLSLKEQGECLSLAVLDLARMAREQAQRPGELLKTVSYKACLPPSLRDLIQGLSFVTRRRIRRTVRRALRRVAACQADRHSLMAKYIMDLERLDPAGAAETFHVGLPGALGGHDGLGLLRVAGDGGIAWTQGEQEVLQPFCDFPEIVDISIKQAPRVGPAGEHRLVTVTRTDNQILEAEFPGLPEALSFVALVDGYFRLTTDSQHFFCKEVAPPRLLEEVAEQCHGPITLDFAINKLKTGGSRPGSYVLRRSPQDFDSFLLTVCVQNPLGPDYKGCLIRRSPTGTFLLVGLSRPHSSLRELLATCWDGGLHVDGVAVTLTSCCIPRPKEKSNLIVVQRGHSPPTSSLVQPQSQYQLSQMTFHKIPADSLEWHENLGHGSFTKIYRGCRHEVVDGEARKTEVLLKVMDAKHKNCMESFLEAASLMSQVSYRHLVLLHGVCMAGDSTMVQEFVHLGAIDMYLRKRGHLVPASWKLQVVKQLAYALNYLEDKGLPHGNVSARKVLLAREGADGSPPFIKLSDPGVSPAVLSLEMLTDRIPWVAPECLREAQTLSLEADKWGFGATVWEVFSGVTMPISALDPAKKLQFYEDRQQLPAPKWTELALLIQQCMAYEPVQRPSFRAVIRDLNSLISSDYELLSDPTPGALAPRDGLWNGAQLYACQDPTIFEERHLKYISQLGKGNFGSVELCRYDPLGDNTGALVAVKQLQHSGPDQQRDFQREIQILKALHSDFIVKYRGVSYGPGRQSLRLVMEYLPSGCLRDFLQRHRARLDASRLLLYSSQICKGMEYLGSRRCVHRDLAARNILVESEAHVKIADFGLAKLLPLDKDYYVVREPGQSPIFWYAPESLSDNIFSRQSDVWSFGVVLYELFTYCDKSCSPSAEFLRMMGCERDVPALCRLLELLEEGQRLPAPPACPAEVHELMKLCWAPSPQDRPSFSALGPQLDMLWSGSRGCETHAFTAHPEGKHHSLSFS
In words: Z'LYTE JAK kinase inhibition assay, JAK3. The series is classed as biochemical. The settings on record: read-out: JAK Catalytic Selectivity (IC50) JAK3.

A short description of the next series: GSH. Format: in vitro ADME.
Series [1] concerns the target T2, JAK2 JH2 pseudokinase domain (Homo sapiens, UniProt O60674).
T2 construct: purchased Eurofins DiscoverX Corporation (contract assay)
In words: KdELECT competition binding assay, JAK2 JH2. The settings on record: read-out: JAK Binding Selectivity (Kd) Pseudokinase Domain (JH2) JAK2. On the procedure: (§1) The KdELECT competition assays were performed to test the binding affinity of compounds to the JH1 kinase region or JH2 pseudokinase region in TYK2 or JAK by ligand competition with JH1 or JH2 protein segments. The assay was carried out at Eurofins DiscoverX Corporation following the established standard protocol (DiscoverX, San Diego, CA). In this assay, compounds that bind to the kinase or pseudokinase protein regions prevent the protein binding to the immobilized ligand and reduce the amount of kinase matter captured on the solid surface. […] Dissociation constants (Kds) for test compound-kinase interactions are calculated by measuring the amount of kinase captured on the solid support as a function of the test compound concentration. […] The ligated beads were blocked with excess biotin and washed with blocking buffer to remove unbound ligand and to reduce nonspecific binding. […] All reactions were performed in polypropylene 384-well plates with a final volume of 20 μL. […] The beads were then re-suspended in the elution buffer and incubated at room temperature with shaking for 30 minutes. The kinase concentration in the eluant was measured by qPCR. Two replicates were performed and averaged to obtain the Kd measurement.

The target of another series is T3, TYK2 JH1 kinase domain (Homo sapiens, UniProt P29597).
T3 construct: purchased Eurofins DiscoverX Corporation (contract assay)
T3 sequence (P29597 897-1176 limits assumed): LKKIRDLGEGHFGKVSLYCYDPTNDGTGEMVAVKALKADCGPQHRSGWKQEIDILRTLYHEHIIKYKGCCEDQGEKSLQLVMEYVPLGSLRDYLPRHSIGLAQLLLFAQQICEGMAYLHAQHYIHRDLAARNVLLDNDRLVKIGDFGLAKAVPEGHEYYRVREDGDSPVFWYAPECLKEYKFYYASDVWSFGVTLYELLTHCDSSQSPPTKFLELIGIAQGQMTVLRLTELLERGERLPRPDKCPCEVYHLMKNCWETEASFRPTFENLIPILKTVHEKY
In words: KdELECT competition binding assay, TYK2 JH1. Conditions: isolated TYK2 JH1 domain. On the procedure: as §1

Another series deals with JAK1 (Homo sapiens, UniProt P23458). In words: Z'LYTE JAK kinase inhibition assay, JAK1. Format: biochemical. The settings on record: read-out: JAK Catalytic Selectivity (IC50) JAK1.
JAK1, sequence (P23458 whole entry): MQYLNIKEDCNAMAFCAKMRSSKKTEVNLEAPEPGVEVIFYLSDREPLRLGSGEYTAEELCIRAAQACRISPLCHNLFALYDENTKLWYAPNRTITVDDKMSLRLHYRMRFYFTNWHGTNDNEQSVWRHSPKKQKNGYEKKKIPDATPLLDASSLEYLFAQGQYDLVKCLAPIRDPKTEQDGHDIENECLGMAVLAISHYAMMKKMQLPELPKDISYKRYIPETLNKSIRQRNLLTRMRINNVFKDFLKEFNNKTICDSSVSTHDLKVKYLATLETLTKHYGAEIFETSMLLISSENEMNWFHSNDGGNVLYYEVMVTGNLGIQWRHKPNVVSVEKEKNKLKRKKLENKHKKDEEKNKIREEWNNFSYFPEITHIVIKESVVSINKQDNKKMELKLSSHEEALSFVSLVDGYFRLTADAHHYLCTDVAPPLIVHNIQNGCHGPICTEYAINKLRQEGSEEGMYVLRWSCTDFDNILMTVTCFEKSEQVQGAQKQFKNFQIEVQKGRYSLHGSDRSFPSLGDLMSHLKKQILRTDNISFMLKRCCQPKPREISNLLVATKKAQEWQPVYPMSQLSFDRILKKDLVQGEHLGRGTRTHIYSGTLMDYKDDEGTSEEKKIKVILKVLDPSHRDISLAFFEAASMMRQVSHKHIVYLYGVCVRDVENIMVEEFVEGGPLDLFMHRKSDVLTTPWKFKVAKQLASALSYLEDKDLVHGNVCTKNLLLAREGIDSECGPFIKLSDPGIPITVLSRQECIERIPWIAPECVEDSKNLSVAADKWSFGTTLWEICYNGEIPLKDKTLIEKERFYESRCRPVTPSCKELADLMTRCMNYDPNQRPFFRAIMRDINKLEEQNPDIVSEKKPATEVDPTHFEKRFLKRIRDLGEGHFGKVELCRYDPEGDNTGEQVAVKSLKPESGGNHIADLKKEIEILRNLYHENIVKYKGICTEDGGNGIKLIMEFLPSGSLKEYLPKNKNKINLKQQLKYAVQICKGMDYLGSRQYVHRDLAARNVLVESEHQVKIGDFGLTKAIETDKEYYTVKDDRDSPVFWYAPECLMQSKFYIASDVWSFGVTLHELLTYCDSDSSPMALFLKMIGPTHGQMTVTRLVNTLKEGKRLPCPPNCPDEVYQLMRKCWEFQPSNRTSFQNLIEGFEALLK

The term IC50 denotes the concentration needed to halve the response being measured. By logD is commonly meant lipophilicity at a set pH, counting ionised and neutral species. Low readings indicate lower lipophilicity, high ones higher lipophilicity. As usually defined, the fraction unbound is the share of the substance not bound to proteins or other matrix. Usually half-life stands for the time needed for the level to fall by half in the phase considered. One may read the Kd as the equilibrium constant for the complex coming apart.

CYP450 2D6, sequence (P10635 whole entry): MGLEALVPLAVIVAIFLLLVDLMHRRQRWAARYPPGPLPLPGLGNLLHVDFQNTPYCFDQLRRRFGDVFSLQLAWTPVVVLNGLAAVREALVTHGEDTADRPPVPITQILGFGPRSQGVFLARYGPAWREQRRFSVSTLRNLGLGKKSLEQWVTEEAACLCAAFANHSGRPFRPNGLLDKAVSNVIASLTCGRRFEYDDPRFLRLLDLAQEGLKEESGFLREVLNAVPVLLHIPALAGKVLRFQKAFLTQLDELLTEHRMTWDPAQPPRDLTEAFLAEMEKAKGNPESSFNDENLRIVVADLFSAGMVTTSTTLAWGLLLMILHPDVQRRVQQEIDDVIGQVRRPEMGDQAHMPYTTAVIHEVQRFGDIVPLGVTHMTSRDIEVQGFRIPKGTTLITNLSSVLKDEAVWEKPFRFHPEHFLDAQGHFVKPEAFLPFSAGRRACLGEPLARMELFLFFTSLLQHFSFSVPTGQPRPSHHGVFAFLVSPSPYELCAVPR
T2 sequence (O60674 545-809 limits assumed): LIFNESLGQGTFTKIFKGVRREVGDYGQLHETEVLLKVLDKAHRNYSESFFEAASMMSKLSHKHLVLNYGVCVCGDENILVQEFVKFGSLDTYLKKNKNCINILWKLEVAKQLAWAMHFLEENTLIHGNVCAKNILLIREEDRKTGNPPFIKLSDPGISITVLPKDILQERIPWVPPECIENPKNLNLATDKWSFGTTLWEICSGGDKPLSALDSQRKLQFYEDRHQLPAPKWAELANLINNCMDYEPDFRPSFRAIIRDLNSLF

`CNC(=O)c1nnc(NC(=O)N2CCC2)cc1Nc1cccc(-c2ncn(C)n2)c1OC` [SHR8751]: the IC50 against CYP450 2D6 was > 30 µM; on CYP450 2C9 it was > 30 µM; at JAK3 it was > 10 µM; on JAK1 it was > 10 µM. In addition, the logD in “LogD” amounted to 0.43. Further, the free fraction (fraction unbound) in the series “PPB, D” is 0.377; in “PPB, Mk”, 0.281; in “PPB, H” it was 0.402; in “PPB, M”, 0.35. Also, the half-life in “LM T1/2, R” was > 67 min; in “LM T1/2, M”, > 139 min. Besides, the GSH result in the series “GSH” was “negative”. Moreover, the Kd in series [1] is 0.29 ± 0.099 µM; on TYK2 JH1 kinase domain it was > 20 µM.

On to `CNC(=O)c1nnc(NC(=O)C2CC2)c2[nH]c(-c3ccc(N)cc3OC)cc12` [SHR2396], for which the IC50 against CYP450 2D6 is > 30 µM; against CYP450 2C9 it was > 30 µM; on JAK3, > 10 µM; on JAK1 it was > 10 µM. Also, in “LogD”, the logD was 1.19. The fraction unbound was 0.0434 in “PPB, D”; 0.0351 in the series “PPB, Mk”; 0.0258 in the series “PPB, H”; 0.0292 in “PPB, M”. The half-life in “LM T1/2, R” is > 67 min; in the series “LM T1/2, M” it was 31 min. The GSH entry in the series “GSH” is listed as “negative”. Moreover, the Kd in series [1] is 0.19 ± 0.099 µM; on TYK2 JH1 kinase domain it was 0.3 µM.

Turning to `[2H]C([2H])([2H])NC(=O)c1nnc(NC(=O)N2CCC2)cc1Nc1cccc(-c2ncn(C)n2)c1OC` [SHR9332], the IC50 was > 30 µM against CYP450 2D6, > 30 µM at CYP450 2C9, > 10 µM on JAK3 and > 10 µM on JAK1. In the series “LogD”, this compound displayed a pH-dependent lipophilicity (logD) of 0.48. For the same compound, the fraction unbound in “PPB, D” was 0.325; in “PPB, Mk” it was 0.231; in “PPB, H”, 0.274; in “PPB, M” it was 0.249. The half-life in “LM T1/2, R” is > 67 min; in “LM T1/2, M” it was 49.8 min. Moreover, in the series “GSH”, the GSH entry is given as “negative”. Further, the values for the Kd (in series [1]; at TYK2 JH1 kinase domain) were 0.22 µM and > 20 µM, respectively.
